Results published in ChEMBL document CHEMBL4507291 (2021).

Legend:
[1] = target: 5'-AMP-activated protein kinase catalytic subunit alpha-1 (Homo sapiens) (UniProt Q13131)
[2] = target: T1, Cytoplasmic tyrosine-protein kinase BMX (Homo sapiens) (UniProt P51813)
T1 sequence (whole entry): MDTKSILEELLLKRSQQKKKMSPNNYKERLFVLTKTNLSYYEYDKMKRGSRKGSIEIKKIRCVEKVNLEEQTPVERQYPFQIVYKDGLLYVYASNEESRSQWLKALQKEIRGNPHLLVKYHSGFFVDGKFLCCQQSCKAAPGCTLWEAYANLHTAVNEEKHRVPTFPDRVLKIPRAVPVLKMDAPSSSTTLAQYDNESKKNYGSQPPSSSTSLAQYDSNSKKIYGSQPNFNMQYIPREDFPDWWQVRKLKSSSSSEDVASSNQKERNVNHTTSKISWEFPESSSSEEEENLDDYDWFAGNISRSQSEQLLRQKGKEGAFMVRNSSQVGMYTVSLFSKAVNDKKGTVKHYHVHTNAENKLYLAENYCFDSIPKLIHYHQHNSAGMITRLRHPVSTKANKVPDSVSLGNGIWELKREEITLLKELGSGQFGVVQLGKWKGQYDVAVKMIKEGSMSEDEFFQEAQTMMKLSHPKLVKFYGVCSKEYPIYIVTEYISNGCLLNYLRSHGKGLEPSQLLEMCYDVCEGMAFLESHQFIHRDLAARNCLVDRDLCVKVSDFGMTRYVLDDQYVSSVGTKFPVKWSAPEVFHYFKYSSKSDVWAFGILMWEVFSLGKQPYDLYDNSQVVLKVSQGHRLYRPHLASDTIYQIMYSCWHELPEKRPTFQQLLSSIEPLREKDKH

[3] = target: Mitotic checkpoint serine/threonine-protein kinase BUB1 (Homo sapiens) (UniProt O43683)
[4] = target: Dual specificity protein kinase CLK4 (Homo sapiens) (UniProt Q9HAZ1)
Sequence of Dual specificity protein kinase CLK4 (Homo sapiens) (Q9HAZ1 whole entry, looked up): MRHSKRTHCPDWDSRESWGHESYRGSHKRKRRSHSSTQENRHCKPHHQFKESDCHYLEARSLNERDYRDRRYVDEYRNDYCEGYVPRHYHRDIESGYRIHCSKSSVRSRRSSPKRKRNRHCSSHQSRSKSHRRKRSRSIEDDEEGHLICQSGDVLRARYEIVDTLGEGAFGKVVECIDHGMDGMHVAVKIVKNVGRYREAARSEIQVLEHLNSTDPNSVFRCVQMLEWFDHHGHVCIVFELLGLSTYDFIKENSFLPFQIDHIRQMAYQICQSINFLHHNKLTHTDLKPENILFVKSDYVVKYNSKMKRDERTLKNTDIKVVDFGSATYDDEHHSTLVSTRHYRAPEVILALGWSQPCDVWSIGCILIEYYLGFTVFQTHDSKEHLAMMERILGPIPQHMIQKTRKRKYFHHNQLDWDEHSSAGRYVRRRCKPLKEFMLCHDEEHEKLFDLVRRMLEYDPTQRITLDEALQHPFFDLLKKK

[5] = target: Casein kinase II subunit alpha' (Homo sapiens) (UniProt P19784)
Sequence of Casein kinase II subunit alpha' (Homo sapiens) (P19784 whole entry, looked up): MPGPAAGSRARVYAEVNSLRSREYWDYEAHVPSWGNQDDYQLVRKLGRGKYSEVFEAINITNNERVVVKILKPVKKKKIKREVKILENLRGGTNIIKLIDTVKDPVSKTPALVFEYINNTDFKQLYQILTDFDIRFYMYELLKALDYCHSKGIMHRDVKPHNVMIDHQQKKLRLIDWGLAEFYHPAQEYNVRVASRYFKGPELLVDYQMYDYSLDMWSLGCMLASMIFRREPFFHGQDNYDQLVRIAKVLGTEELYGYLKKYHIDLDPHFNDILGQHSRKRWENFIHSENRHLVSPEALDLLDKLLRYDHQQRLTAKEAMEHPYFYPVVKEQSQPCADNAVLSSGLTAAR

[6] = target: Tyrosine-protein kinase Fyn (Homo sapiens) (UniProt P06241)
Sequence of Tyrosine-protein kinase Fyn (Homo sapiens) (P06241 2-537 limits assumed): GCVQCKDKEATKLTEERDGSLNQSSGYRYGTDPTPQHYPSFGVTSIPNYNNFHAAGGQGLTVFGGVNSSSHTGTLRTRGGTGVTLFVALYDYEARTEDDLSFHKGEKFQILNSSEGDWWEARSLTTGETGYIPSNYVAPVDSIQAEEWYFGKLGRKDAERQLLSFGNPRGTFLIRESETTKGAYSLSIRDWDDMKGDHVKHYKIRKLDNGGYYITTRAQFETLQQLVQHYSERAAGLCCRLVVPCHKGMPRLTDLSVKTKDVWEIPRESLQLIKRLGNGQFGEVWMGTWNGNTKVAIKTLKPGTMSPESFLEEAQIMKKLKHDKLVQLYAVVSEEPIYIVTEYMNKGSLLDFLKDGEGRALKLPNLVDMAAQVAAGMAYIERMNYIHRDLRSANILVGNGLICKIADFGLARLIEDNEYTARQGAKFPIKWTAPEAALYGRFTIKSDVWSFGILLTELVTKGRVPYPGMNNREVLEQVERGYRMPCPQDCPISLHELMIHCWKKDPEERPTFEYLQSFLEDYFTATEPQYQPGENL

[7] = target: Tyrosine-protein kinase JAK2 (Homo sapiens) (UniProt O60674)
[8] = target: LIM domain kinase 1 (Homo sapiens) (UniProt P53667)
Sequence of LIM domain kinase 1 (Homo sapiens) (P53667 whole entry, looked up, the tested form may be a part): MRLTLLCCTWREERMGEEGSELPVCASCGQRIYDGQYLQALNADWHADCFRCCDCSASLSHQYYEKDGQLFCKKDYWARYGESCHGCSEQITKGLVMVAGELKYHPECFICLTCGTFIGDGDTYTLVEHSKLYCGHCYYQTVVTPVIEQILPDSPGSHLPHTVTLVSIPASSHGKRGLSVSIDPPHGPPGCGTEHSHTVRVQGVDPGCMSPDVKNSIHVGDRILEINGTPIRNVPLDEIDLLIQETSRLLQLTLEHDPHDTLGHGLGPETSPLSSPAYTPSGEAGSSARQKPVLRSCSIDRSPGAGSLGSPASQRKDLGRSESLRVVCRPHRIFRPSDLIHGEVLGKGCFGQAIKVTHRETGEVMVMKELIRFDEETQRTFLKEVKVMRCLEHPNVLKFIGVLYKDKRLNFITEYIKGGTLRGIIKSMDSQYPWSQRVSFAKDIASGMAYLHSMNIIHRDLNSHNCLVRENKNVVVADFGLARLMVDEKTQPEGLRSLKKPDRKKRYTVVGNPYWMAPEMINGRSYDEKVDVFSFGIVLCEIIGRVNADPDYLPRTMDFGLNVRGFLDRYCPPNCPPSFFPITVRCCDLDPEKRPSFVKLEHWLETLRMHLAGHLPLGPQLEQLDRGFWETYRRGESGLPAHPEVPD

[9] = target: Calcium-dependent protein kinase 1 (Plasmodium falciparum) (UniProt P62344)
Sequence of Calcium-dependent protein kinase 1 (Plasmodium falciparum) (P62344 2-524 limits assumed): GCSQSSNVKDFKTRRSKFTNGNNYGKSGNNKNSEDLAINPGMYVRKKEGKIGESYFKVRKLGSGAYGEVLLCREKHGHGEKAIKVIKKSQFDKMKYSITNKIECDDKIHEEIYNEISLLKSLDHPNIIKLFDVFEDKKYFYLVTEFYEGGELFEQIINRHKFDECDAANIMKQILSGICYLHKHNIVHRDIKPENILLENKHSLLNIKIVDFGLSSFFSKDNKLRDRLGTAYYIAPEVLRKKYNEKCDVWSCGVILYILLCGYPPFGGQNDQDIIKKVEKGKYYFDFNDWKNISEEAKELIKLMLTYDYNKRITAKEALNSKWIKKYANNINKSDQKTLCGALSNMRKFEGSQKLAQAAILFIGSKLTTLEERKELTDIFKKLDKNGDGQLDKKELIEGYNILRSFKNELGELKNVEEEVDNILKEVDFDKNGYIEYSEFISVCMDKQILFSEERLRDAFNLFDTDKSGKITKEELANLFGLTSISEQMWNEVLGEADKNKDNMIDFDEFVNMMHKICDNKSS

[10] = target: Serine/threonine-protein kinase pim-2 (Homo sapiens) (UniProt Q9P1W9)
Sequence of Serine/threonine-protein kinase pim-2 (Homo sapiens) (Q9P1W9 whole entry, looked up): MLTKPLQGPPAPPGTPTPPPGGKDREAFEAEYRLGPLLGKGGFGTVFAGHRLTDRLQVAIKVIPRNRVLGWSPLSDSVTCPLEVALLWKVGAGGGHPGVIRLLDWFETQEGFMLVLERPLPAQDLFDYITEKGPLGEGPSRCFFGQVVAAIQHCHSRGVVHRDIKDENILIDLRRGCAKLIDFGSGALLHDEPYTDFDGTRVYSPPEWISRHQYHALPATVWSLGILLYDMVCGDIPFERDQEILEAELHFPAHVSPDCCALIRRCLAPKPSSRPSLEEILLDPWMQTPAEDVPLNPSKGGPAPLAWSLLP

[11] = target: T2, Protein kinase C epsilon type (Homo sapiens) (UniProt Q02156)
T2 sequence (whole entry): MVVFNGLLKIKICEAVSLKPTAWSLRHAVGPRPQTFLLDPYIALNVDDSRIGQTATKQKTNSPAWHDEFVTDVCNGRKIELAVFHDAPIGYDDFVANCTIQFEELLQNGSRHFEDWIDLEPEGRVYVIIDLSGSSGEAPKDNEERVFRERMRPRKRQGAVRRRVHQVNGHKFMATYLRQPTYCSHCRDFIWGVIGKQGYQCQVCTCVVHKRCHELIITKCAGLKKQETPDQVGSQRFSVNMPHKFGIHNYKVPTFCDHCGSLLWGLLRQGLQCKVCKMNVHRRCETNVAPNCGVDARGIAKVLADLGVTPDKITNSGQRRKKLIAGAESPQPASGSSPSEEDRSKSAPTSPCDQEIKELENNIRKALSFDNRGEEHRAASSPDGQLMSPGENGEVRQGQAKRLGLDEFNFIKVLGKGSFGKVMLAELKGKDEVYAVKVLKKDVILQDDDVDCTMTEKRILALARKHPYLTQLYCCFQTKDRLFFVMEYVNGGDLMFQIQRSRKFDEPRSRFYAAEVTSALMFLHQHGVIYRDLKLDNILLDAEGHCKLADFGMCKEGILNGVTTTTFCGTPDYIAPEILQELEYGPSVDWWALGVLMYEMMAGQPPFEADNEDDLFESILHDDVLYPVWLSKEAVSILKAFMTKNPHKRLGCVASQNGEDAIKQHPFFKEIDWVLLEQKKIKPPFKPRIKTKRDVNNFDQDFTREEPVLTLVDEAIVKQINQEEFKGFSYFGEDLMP

[12] = target: T3, cGMP-dependent protein kinase 1 (Homo sapiens) (UniProt Q13976)
T3 sequence (whole entry): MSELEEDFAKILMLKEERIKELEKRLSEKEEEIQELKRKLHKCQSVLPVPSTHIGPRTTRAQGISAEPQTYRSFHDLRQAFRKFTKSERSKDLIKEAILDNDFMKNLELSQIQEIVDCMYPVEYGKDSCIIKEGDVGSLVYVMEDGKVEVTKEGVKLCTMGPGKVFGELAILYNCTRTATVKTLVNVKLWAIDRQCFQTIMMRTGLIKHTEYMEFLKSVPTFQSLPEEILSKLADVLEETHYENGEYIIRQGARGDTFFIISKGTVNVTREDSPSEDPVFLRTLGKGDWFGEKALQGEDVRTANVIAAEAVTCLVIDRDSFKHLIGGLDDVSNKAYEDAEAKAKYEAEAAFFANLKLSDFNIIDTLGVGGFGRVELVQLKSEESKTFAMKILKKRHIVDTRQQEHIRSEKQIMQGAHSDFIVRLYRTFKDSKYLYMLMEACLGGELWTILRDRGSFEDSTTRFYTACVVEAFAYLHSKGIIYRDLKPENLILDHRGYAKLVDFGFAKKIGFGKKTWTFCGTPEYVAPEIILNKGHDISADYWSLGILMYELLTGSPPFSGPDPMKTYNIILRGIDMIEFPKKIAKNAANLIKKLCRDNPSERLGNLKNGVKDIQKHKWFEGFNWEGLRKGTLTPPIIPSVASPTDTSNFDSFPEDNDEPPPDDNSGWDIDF

[13] = target: Serine/threonine-protein kinase RIO1 (Homo sapiens) (UniProt Q9BRS2)
Sequence of Serine/threonine-protein kinase RIO1 (Homo sapiens) (Q9BRS2 whole entry): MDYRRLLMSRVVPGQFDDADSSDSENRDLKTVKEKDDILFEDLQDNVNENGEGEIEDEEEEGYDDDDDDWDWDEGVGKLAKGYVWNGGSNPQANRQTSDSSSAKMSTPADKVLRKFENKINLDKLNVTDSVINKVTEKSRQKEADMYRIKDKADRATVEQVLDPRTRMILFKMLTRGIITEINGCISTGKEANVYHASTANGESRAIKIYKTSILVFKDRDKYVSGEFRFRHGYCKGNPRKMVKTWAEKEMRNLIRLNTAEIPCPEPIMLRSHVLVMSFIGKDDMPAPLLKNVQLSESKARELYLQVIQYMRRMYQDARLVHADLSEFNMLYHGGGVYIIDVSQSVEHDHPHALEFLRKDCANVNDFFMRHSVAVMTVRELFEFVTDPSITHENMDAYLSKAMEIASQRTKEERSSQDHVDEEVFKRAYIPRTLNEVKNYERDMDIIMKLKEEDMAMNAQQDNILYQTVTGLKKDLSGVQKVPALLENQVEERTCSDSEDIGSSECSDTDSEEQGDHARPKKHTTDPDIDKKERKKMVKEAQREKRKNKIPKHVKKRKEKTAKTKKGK

[14] = target: Beta-2 adrenergic receptor (Homo sapiens) (UniProt P07550); conditions: Compound concentration 10.0 uM
Sequence of Beta-2 adrenergic receptor (Homo sapiens) (P07550 whole entry, looked up): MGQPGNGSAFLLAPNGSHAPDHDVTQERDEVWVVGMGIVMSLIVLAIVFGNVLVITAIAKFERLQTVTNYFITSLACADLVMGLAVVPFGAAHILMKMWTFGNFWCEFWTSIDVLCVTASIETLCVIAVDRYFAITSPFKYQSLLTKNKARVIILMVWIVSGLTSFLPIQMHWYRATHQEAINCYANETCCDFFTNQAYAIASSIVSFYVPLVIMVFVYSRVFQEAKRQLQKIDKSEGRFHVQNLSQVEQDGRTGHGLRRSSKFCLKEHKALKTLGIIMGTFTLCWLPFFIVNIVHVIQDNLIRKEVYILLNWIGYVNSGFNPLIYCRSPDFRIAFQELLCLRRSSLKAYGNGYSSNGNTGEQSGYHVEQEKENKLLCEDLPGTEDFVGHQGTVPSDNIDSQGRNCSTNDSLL

[15] = Compound concentration 100.0 nM
[16] = Compound concentration 1000.0 nM

Sequence of 5'-AMP-activated protein kinase catalytic subunit alpha-1 (Homo sapiens) (Q13131 whole entry, looked up): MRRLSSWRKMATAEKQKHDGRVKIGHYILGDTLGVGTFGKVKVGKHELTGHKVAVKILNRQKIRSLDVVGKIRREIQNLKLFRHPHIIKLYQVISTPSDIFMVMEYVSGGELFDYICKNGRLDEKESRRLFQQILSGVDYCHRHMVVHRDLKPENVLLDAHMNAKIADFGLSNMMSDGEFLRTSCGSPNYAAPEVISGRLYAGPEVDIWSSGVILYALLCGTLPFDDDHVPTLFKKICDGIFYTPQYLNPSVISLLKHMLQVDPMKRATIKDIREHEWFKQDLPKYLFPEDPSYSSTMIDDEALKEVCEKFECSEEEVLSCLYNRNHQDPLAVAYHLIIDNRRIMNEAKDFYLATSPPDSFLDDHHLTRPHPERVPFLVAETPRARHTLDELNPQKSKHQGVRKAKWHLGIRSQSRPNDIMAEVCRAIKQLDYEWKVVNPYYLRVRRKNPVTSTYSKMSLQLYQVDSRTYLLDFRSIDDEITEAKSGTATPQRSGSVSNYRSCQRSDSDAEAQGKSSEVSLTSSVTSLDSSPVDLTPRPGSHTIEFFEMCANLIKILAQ

C[C@@H]1CN(c2cc(-c3n[nH]c4ccc(OC5(C)CC5)cc34)ncn2)C[C@H](C)O1 [MLi-2]
inactive: residual activity [1, 15] 86% | residual activity [2, 15] 80% | residual activity [3, 15] 84% | residual activity [4, 15] 87% | residual activity [5, 15] 100% | residual activity [6, 15] 100% | residual activity [7, 15] 77% | residual activity [8, 15] 86% | residual activity [9, 15] 94% | residual activity [10, 15] 88% | residual activity [11, 15] 95% | residual activity [12, 15] 100% | residual activity [13, 15] 100% | inhibition [14] 26.4%

C[C@@H]1CN(c2cc(-c3nn(C)c4ccc(OC5(C)CC5)cc34)ncn2)C[C@H](C)O1 [MLi-2-NC]
inactive: residual activity [1, 16] 93% | residual activity [2, 16] 93% | residual activity [3, 16] 89% | residual activity [4, 16] 100% | residual activity [5, 16] 86% | residual activity [6, 16] 98% | residual activity [7, 16] 55% | residual activity [8, 16] 95% | residual activity [9, 16] 83% | residual activity [10, 16] 100% | residual activity [11, 16] 100% | residual activity [12, 16] 100% | residual activity [13, 16] 89% | inhibition [14] 13.8%
